This assay deals with Plasmodium berghei. Nature of the assay: Luciferase/luciferin-expressing antifolate-resistant parasites were used to infect a culture of HepG2 cells that were pre-incubated with compounds. Infected hepatocytes emit light due to the luciferase reaction. Assay results are presented as the percent inhibition of light emission compared to control. […]. It is filed as functional. To be noted: sporozoite; for IC90: read-out: LUCIFERASE INFECTION ASSAY - IC90.

Setting [1] is: read-out: LUCIFERASE INFECTION ASSAY - IC50.

SMILES strings stand for the structures. pIC50: −log10 of the molar value.

As for `Cc1csc2ncnc(N3CCN(C(=O)Nc4ccc(Cl)c(Cl)c4)CC3)c12`, the IC90 (as a rule, the point of the concentration-response curve where the effect stands at 90%) is above 7.81 µM. Moreover, the pIC50 (as a rule, the IC50 on a negative log10 scale, so that one unit is a factor of ten) (HEPG2TOX_HILL_SLOPE 0.318, HEPG2TOX_R_SQUARED 0.0791, PBLUC_HILL_SLOPE 1.99, PBLUC_R_SQUARED 0.376, read-out: LUCIFERASE INFECTION ASSAY - IC50) was below 5.11.

With `CN(C)S(=O)(=O)c1cccc(NC(=S)N/N=C/c2cc3c(cc2[N+](=O)[O-])OCO3)c1`, the IC90 is above 10 µM. Also, the pIC50 (FFLUC_HILL_SLOPE 11, FFLUC_R_SQUARED 0.0812, read-out: LUCIFERASE INFECTION ASSAY - IC50) is below 5.00.

In the case of `CN(C)c1ccc(CNCC2(c3ccnc(-c4ccc(Cl)cc4)c3)CC2)cc1`, the IC90 was above 10 µM. Where the note is “PBLUC_HILL_SLOPE 2.32, PBLUC_R_SQUARED 0.214, read-out: LUCIFERASE INFECTION ASSAY - IC50”, the pIC50 was 5.20.

For the compound `CC(C)Oc1cccc(Nc2nccc3[nH]c(-c4cccc(F)c4)cc23)c1`, the IC90 was above 10 µM. Further, under setting [1], the pIC50 was 5.83.

For `FC(F)(F)c1ccnc(N2CCN(C(c3ccccc3)c3ccccc3)CC2)c1`, the IC90 is above 8.3 µM. For the setting “PBLUC_HILL_SLOPE 1.54, PBLUC_R_SQUARED 0.0984, read-out: LUCIFERASE INFECTION ASSAY - IC50”, the pIC50 was below 5.08.

Regarding `COc1cc(-c2cnc3cnc(-c4ccccc4N(C)C)cn23)ccc1O`, the IC90 is above 9.16 µM. In addition, the pIC50 (HEPG2TOX_HILL_SLOPE 8.81, HEPG2TOX_R_SQUARED 0.374, PBLUC_HILL_SLOPE 9.99, PBLUC_R_SQUARED 0.0967, read-out: LUCIFERASE INFECTION ASSAY - IC50) is 5.11.

Turning to `O=C(NC1CC1)c1ccc(CN(C2CC2)S(=O)(=O)c2cccc3c2N=S=N3)cc1`, the IC90 is above 10 µM. The pIC50 under setting [1] was below 5.00.

Turning to `O=C(NC1CC1)c1ccc(-c2cn3c(-c4ccc5ncccc5c4)cnc3cn2)cc1`, the IC90 is above 8.14 µM. For the same compound, the pIC50 (HEPG2TOX_HILL_SLOPE 8.34, HEPG2TOX_R_SQUARED 0.193, PBLUC_HILL_SLOPE 5.05, PBLUC_R_SQUARED 0.479, read-out: LUCIFERASE INFECTION ASSAY - IC50) is 5.14.

`COc1ccc(-n2c(C)cc(C(=O)CSc3nc4c(n3-c3ccccc3)CCCC4)c2C)cc1`: the IC90 was above 10 µM. Besides, the pIC50 under setting [1] is below 5.00.

With `COc1ccccc1C(=O)NCC#Cc1cccc(C(F)(F)F)c1`, the IC90 stood at 8.91 µM. The pIC50 (PBLUC_HILL_SLOPE 4.8, PBLUC_R_SQUARED 0.508, read-out: LUCIFERASE INFECTION ASSAY - IC50) is 5.25.

In the case of `CC(C)(C)OC(=O)N[C@@H](Cc1ccccc1)c1n[nH]c(=S)n1CC1CCCO1` (some centres undefined), the IC90 is above 8.16 µM. Besides, the pIC50 under setting [1] was below 5.09.

For `CCOC(=O)N/N=C(\CC)c1ccc(-c2ccccc2F)cc1`, the IC90 is above 10.5 µM. Further, under “HEPG2TOX_HILL_SLOPE 16.9, HEPG2TOX_R_SQUARED 0.877, PBLUC_HILL_SLOPE 3.23, PBLUC_R_SQUARED 0.461, read-out: LUCIFERASE INFECTION ASSAY - IC50”, the pIC50 is 5.22.

For the compound `CC(C)n1ncc2c(C(=O)N3CCN(CC(=O)N4CCCC4)CC3)cc(-c3ccccc3)nc21`, the IC90 was determined as 5.42 µM. Besides, the pIC50 (PBLUC_HILL_SLOPE 8.22, PBLUC_R_SQUARED 0.426, read-out: LUCIFERASE INFECTION ASSAY - IC50) was 5.38.

As to `CCCCNC(=O)c1c(NC(=O)c2cccc(F)c2)nc2ccc(C)cn12`, the IC90 was 2.84 µM. In addition, the pIC50 under setting [1] is 5.89.

On to `COc1ccc(NC(=O)C(C(=O)Nc2ccc(OC)cc2)C23CC4CC(CC(C4)C2)C3)cc1`, for which the IC90 was above 10 µM. For the same compound, the pIC50 under setting [1] was 5.15.

With `COc1cc(OC)cc(C(=O)Nc2nc3ccc(C)cn3c2C(=O)NC2CCCC2)c1`, the IC90 was 6.19 µM. The pIC50 (HEPG2TOX_HILL_SLOPE 8.61, HEPG2TOX_R_SQUARED 0.625, PBLUC_HILL_SLOPE 3.28, PBLUC_R_SQUARED 0.589, read-out: LUCIFERASE INFECTION ASSAY - IC50) was 5.50.

With `CC(NC(=S)Nc1ccc(Oc2ccc(Cl)cc2)cc1)c1ccccc1` (centres undefined), the IC90 is above 8.62 µM. Besides, the negative logarithm of the IC50 (pIC50) under setting [1] was 5.15.

Regarding `CC(C)NC(=O)c1c(NC(=O)c2cccc(F)c2)nc2ccccn12`, the IC90 came out at 7.41 µM. Besides, the pIC50 (HEPG2TOX_HILL_SLOPE 3.53, HEPG2TOX_R_SQUARED 0.8, PBLUC_HILL_SLOPE 29.8, PBLUC_R_SQUARED 0.0967, read-out: LUCIFERASE INFECTION ASSAY - IC50) is 5.16.

As to `Cc1ccc(C(=O)O)cc1NS(C)(=O)=O`, the IC90 is above 10 µM. For the same compound, under setting [1], the negative-log IC50 (pIC50) is below 5.00.

Turning to `COc1cccc(-c2ccc3nnc(-c4ccc5c(c4)OCO5)n3c2)c1`, the IC90 came out at 0.981 µM. For the same compound, the pIC50 (HEPG2TOX_HILL_SLOPE 1.68, HEPG2TOX_R_SQUARED 0.984, PBLUC_HILL_SLOPE 2.05, PBLUC_R_SQUARED 0.784, read-out: LUCIFERASE INFECTION ASSAY - IC50) was 6.47.

Consider `CCCNC(=O)c1c(NC(=O)c2ccc(C(F)(F)F)cc2)nc2ccc(C)cn12`, for which the 90% effect concentration (IC90) was 1.11 µM. The pIC50 (FFLUC_HILL_SLOPE 11.2, FFLUC_R_SQUARED 0.698, HEPG2TOX_HILL_SLOPE 0.884, HEPG2TOX_R_SQUARED 0.902, PBLUC_HILL_SLOPE 2.26, PBLUC_R_SQUARED 0.742, read-out: LUCIFERASE INFECTION ASSAY - IC50) is 6.38.

Take `O=C(/C=C/c1ccccc1)Nc1ccc(C23CC4CC(CC(O)(C4)C2)C3)cc1`: the 90% effect concentration (IC90) was determined as 9.39 µM. Further, the pIC50 (PBLUC_HILL_SLOPE 1.46, PBLUC_R_SQUARED 0.646, read-out: LUCIFERASE INFECTION ASSAY - IC50) was 5.68.

Consider `CCOC(=O)c1sc2nc(C)nc(N3CC=C(c4c[nH]c5ncccc45)CC3)c2c1C`, for which the 90% effect concentration (IC90) was above 10 µM. Also, under setting [1], the pIC50 is below 5.00.

On to `COCCOc1ccc(C(F)(F)F)cc1NC(=O)c1ccc(SCc2cscn2)cc1`, for which the IC90 is above 10 µM. The pIC50 (PBLUC_HILL_SLOPE 14.5, PBLUC_R_SQUARED 0.0793, read-out: LUCIFERASE INFECTION ASSAY - IC50) is 5.05.

Turning to `N#Cc1ccc(C=C2C(=O)Nc3ccccc3NC2=O)cc1`, the IC90 was above 10 µM. Under setting [1], the pIC50 was below 5.00.

Consider `O=C(Nc1cccc2ccccc12)N1CCN(c2ncccc2C(F)(F)F)CC1`, for which the IC90 was determined as 0.105 µM. For the same compound, the pIC50 (HEPG2TOX_HILL_SLOPE 3.44, HEPG2TOX_R_SQUARED 0.402, PBLUC_HILL_SLOPE 82.3, PBLUC_R_SQUARED 0.563, read-out: LUCIFERASE INFECTION ASSAY - IC50) is 6.99.

Take `CC(C)CCCC(C)C1CCC2(C)C3=C(CCC12C)C1(C)CCC(=O)C(C)(C)C1CC3` (centres undefined): the IC90 worked out at 6.57 µM. Moreover, the pIC50 (HEPG2TOX_HILL_SLOPE 3.93, HEPG2TOX_R_SQUARED 0.974, PBLUC_HILL_SLOPE 2.18, PBLUC_R_SQUARED 0.307, read-out: LUCIFERASE INFECTION ASSAY - IC50) was 5.62.

Consider `CCN1C(=O)N(CCC(C)C)C2(CCN(Cc3ccc4c(c3)Cc3ccccc3-4)CC2)C1=O`, for which the 90% effect concentration (IC90) was above 7.41 µM. For the same compound, the pIC50 (HEPG2TOX_HILL_SLOPE 8.09, HEPG2TOX_R_SQUARED 0.945, PBLUC_HILL_SLOPE 9.13, PBLUC_R_SQUARED 0.509, read-out: LUCIFERASE INFECTION ASSAY - IC50) was 5.23.

Regarding `CCCNC(=O)c1csc(C(O)c2ccc(C(C)(C)C)cc2)n1` (centres undefined), the IC90 is above 10 µM. For the same compound, the negative-log IC50 (pIC50) (HEPG2TOX_HILL_SLOPE 2.18, HEPG2TOX_R_SQUARED 0.794, read-out: LUCIFERASE INFECTION ASSAY - IC50) was below 5.00.

`O=C(NCCc1nc(-c2ccccc2)no1)c1cc2cc(Cl)ccc2o1`: the IC90 was above 8.97 µM. Under “PBLUC_HILL_SLOPE 0.5, PBLUC_R_SQUARED 0.259, read-out: LUCIFERASE INFECTION ASSAY - IC50”, the pIC50 is below 5.05.

For `CCN(CC)c1ccc(NC(=O)c2[nH]nc3ccccc23)cc1S(=O)(=O)Nc1ccc(OC)cc1`, the IC90 is above 10 µM. Further, the pIC50 (PBLUC_HILL_SLOPE 10.5, PBLUC_R_SQUARED 0.206, read-out: LUCIFERASE INFECTION ASSAY - IC50) was 5.04.

Consider `Cc1cc(=O)n2nc(CSc3ncc(-c4ccccc4)n3-c3c(C)cccc3C)sc2n1`, for which the IC90 is 5.16 µM. Also, the pIC50 under setting [1] is 5.62.

As to `Cc1cc(Nc2cccc(C(F)(F)F)c2)n2ncc(C#N)c2n1`, the IC90 was determined as 3.35 µM. Where the note is “HEPG2TOX_HILL_SLOPE 1.43, HEPG2TOX_R_SQUARED 0.906, PBLUC_HILL_SLOPE 4.64, PBLUC_R_SQUARED 0.533, read-out: LUCIFERASE INFECTION ASSAY - IC50”, the pIC50 was 5.68.

Regarding `Cc1oc2c(c1C(=O)N1CCN(CCO)CC1)C(=O)c1ccccc1C2=O`, the IC90 was above 10 µM. Also, the negative logarithm of the IC50 (pIC50) (HEPG2TOX_HILL_SLOPE 0.333, HEPG2TOX_R_SQUARED 0.261, PBLUC_HILL_SLOPE 0.243, PBLUC_R_SQUARED 0.141, read-out: LUCIFERASE INFECTION ASSAY - IC50) was 5.09.

In the case of `COc1ccc(-c2cnc3ccc(N[C@H](CO)C(C)C)nn23)cn1`, the 90% effect concentration (IC90) worked out at 4.4 µM. In addition, the pIC50 (PBLUC_HILL_SLOPE 4.47, PBLUC_R_SQUARED 0.471, read-out: LUCIFERASE INFECTION ASSAY - IC50) is 5.57.

Regarding `Cc1ccc2c(CSc3nc(N)c(C#N)cc3C#N)cc(=O)oc2c1C`, the 90% effect concentration (IC90) is 2.94 µM. In addition, the pIC50 (FFLUC_HILL_SLOPE 4.09, FFLUC_R_SQUARED 0.386, HEPG2TOX_HILL_SLOPE 1.27, HEPG2TOX_R_SQUARED 0.917, PBLUC_HILL_SLOPE 1.89, PBLUC_R_SQUARED 0.826, read-out: LUCIFERASE INFECTION ASSAY - IC50) was 6.04.

For `Cc1cc(C)cc(N(C(=O)Cc2coc3cc(C)ccc23)c2nc(-c3ccc(F)cc3)cs2)c1`, the IC90 is above 10 µM. In addition, the negative logarithm of the IC50 (pIC50) under setting [1] is below 5.00.

These data come from ChEMBL document CHEMBL4483862, “Open-source discovery of chemical leads for next-generation chemoprotective antimalarials” (2018).
